Source: publication PMC3179684 (Toxicological Sciences, 2011)
Values joined by “and” are separate entries in the source; they are usually repeats but may differ in a detail not shown here. Equal values may be shown once. Read-outs that look alike come from different tables or passages of the source. Marks after values point to notes of the source that are not given here. One block for each compound: values may come before it.

Legend:
CYP [1] = experiment: EO formation in ET-exposed rat lung microsomes; assay type: in vitro ADME, Fischer 344 rats
CYP [2] = experiment: EO formation in ET-exposed mouse lung microsomes; assay type: in vitro ADME, B6C3F1 mice
CYP2E1 [3] = molecular target: CYP2E1 (Homo sapiens, UniProt P05181); experiment: EO formation in ET-exposed human liver microsomes; assay type: in vitro ADME
CYP2E1 [4] = molecular target: T1, CYP2E1 (Mus musculus, UniProt Q05421); experiment: EO formation in ET-exposed liver microsomes of wild-type mice; assay type: in vitro ADME, 129S1/SvImJ mice (wild-type mice)
CYP2E1 [5] = molecular target: CYP2E1 (Rattus norvegicus, UniProt P05182); experiment: EO formation in ET-exposed rat liver microsomes; assay type: in vitro ADME, Fischer 344 rats
CYP2E1 [6] = molecular target: T1, CYP2E1; experiment: EO formation in ET-exposed mouse liver microsomes; assay type: in vitro ADME, B6C3F1 mice
[7] = rats; ref Hamm et al., 1984; cited from earlier work
[8] = Thermodynamic partition coefficient medium-to-air; assay type: physicochemical; settings: microsomal incubations, 37°C (ET n = 5, EO n = 3)
hepatic CYP = settings: rats, 600 ppm ET, cited from earlier work
[9] = mouse, gas uptake; ref Artati et al. (2009); cited from earlier work
[10] = value used in the physiological toxicokinetic model; ref Csanády et al. (2000); cited from earlier work
CYP [11] = experiment: EO formation in ET-exposed liver microsomes of CYP2E1 knockout mice; assay type: in vitro ADME, 129/Sv-Cyp2e1tm1Gonz/J mice (CYP2E1 knockout mice); settings: pooled liver microsomes of 50 CYP2E1 knockout mice
[12] = rat, gas uptake, cited from earlier work
CYP [13] = experiment: Metabolic ET elimination in mouse liver microsomes; assay type: in vitro ADME, B6C3F1 mice; settings: 10 mg protein/ml, ET 170 ppm in vessel atmosphere
[14] = in vitro and in vivo in rodents; ref Victorin and Ståhlberg, 1988; Walker et al., 2000; cited from earlier work
[15] = 37°C, pH 7, estimated; ref Faller et al., 2001; cited from earlier work
epoxide hydrolase (EH) [16] = settings: rat liver microsomes; about the same obtained here; ref Faller et al., 2001; cited from earlier work
[17] = GSH 15 mmol/l; ref Faller et al. (2001); cited from earlier work
epoxide hydrolase (EH) [18] = settings: mouse liver microsomes; about the same obtained here; ref Faller et al., 2001; cited from earlier work
[19] = determined using a synthetic iron porphyrin; ref Collman et al., 1986; cited from earlier work

CYP2E1 (Rattus norvegicus, UniProt P05182), sequence (P05182 whole entry): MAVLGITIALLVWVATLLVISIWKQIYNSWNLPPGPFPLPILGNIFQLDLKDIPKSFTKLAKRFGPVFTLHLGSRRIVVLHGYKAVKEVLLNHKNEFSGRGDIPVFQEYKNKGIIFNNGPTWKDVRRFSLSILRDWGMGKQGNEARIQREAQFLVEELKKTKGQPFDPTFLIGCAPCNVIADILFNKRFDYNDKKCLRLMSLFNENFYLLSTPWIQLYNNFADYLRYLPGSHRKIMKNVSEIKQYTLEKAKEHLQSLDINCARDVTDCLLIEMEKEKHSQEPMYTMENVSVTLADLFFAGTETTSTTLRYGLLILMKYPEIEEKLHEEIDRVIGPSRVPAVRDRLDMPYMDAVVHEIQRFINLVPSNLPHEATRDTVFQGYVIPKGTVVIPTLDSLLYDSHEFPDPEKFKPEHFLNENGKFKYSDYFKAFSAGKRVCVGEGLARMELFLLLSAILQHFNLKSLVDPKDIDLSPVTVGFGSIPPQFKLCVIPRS
CYP2E1 (Homo sapiens, UniProt P05181), sequence (P05181 whole entry): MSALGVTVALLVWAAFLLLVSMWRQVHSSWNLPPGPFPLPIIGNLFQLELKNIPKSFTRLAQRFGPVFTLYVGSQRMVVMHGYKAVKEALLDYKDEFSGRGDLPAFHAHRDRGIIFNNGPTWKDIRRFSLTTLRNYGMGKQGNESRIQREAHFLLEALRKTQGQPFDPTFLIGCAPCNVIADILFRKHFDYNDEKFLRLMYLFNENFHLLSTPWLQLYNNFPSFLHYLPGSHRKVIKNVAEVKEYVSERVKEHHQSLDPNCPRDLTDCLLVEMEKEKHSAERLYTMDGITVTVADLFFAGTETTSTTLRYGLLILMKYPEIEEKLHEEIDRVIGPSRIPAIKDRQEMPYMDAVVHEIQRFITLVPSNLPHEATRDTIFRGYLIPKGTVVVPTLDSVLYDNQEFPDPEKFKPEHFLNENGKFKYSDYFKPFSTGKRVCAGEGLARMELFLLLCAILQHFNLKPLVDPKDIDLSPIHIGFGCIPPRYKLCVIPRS
T1 sequence (Q05421 whole entry): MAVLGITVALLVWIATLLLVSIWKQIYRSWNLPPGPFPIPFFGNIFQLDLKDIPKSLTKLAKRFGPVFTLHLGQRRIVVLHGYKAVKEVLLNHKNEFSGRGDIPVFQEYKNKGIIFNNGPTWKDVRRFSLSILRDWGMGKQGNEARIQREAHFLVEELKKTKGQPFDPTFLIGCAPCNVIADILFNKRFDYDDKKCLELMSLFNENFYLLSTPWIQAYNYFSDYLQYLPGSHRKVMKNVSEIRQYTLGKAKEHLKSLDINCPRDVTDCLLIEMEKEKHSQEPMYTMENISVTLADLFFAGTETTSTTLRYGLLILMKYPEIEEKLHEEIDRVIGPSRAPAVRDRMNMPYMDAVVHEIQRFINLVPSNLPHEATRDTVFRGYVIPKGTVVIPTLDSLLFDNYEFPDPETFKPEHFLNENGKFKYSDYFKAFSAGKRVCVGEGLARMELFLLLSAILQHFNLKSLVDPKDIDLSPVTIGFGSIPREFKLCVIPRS

VmaxEO (maximum EO formation rate) (CYP [1]; pooled rat lung microsomes, mean of 18,600 and 57,800 ppm ET): 0.055 nmol/min/mg protein
VmaxEO (maximum EO formation rate) (CYP [2]; pooled mouse lung microsomes, mean of 16,500 and 75,400 ppm ET): 0.073 nmol/min/mg protein
k3/k4 (partition ratio) (CYP2E1 [3]; human liver microsomes, mean ± SE): 39 ± 6
Km, predicted from in vitro (CYP2E1 [3]; human, Km in suspension divided by Kst 0.33): 963 ppm in air
time in which hepatic CYP2E1 decreases to about one third of the initial status (CYP2E1 [3]; humans, very high ET concentrations, expected from k4): 11 min
VmaxEO (maximum EO formation rate) (CYP2E1 [3]; liver microsomes from one individual, mean ± SE): 0.253 ± 0.0002 nmol/min/mg protein
k3 (catalytic rate constant of EO formation) (CYP2E1 [3]; pooled human liver microsomes, VmaxEO divided by CYP2E1 content, mean ± SE): 3.2 ± 0.2 min⁻¹
VmaxEO in wild-type mice relative to CYP2E1 knockout mice (CYP2E1 [4]; liver microsomes): about 15 times higher
ratio of VmaxEO/Km in wild-type mice to VmaxEO/Km in CYP2E1 knockout mice (CYP2E1 [4]; liver microsomes): 340
VmaxEO (maximum rate of EO formation) (CYP2E1 [4]; pooled liver microsomes of 50 wild-type mice): 1.1 nmol/min/mg protein
k3/k4 (partition ratio) (CYP2E1 [5]; pooled rat liver microsomes, mean ± SE): 169 ± 15
k3 (catalytic rate constant of EO formation) (CYP2E1 [5]; pooled rat liver microsomes, VmaxEO divided by CYP2E1 content, mean ± SE): 11.2 ± 1.5 min⁻¹
Km, predicted from in vitro (CYP2E1 [5]; rat, Km in suspension divided by Kst 0.50): 1516 ppm in air
time in which hepatic CYP2E1 decreases to about one third of the initial status (CYP2E1 [6]; mice, very high ET concentrations, expected from k4): 18 min
Km, predicted from in vitro (CYP2E1 [6]; mouse, Km in suspension divided by Kst 0.55): 400 ppm in air
k3/k4 (partition ratio) (CYP2E1 [6]; pooled mouse liver microsomes, mean ± SE): 100 ± 9
k3 (catalytic rate constant of EO formation) (CYP2E1 [6]; pooled mouse liver microsomes, VmaxEO divided by CYP2E1 content, mean ± SE): 5.9 ± 0.6 min⁻¹
Keq (thermodynamic partition coefficient medium-to-air) [8]: 0.2 ± 0.06 and 0.2
VmaxEO (maximum rate of EO formation) (CYP [11]): 0.074 nmol/min/mg protein
initial rate of metabolic ET elimination (CYP [13]): 0.069 nmol/min/mg protein
Compound: C=C [ET, ethylene]
k4 (suicide inactivation rate constant) (CYP [1]; lung microsomes pooled from 50 rats, two incubations): 0.573 min⁻¹ and 0.392 min⁻¹
k4 (suicide inactivation rate constant) (CYP [2]; lung microsomes pooled from 150 mice, two incubations): 0.306 min⁻¹ and 0.326 min⁻¹
k4 (suicide inactivation rate constant) (CYP2E1 [3]; human liver microsomes, nine ET incubations, mean ± SE): 0.098 ± 0.013 min⁻¹
VmaxEO (maximum EO formation rate) (CYP2E1 [3]; liver microsomes pooled from 25 humans, 37°C, mean ± SE): 0.219 nmol/min/mg protein and 0.219 ± 0.005 nmol/min/mg protein
VmaxEO (maximum EO formation rate) (CYP2E1 [5]; liver microsomes pooled from 10 rats, 37°C, mean ± SE): 0.401 nmol/min/mg protein and 0.401 ± 0.013 nmol/min/mg protein
k4 (suicide inactivation rate constant) (CYP2E1 [5]; pooled rat liver microsomes, eight ET incubations, mean ± SE): 0.070 ± 0.006 min⁻¹
VmaxEO (maximum EO formation rate) (CYP2E1 [6]; liver microsomes pooled from 50 mice, 37°C, mean ± SE): 0.567 nmol/min/mg protein and 0.567 ± 0.038 nmol/min/mg protein
k4 (suicide inactivation rate constant) (CYP2E1 [6]; pooled mouse liver microsomes, six ET incubations, mean ± SE): 0.060 ± 0.005 min⁻¹
long-term carcinogenicity study [7]: negative
hepatic 4-nitrophenol hydroxylase activity (predominantly CYP2E1) remaining (hepatic CYP; after 4 h, ref Fennell et al., 2004): 50%
hepatic CYP remaining after inactivation (hepatic CYP; after 360 min of exposure, ref Maples and Dahl, 1993): 68%
Km, determined in vivo [9]: 105 ^d ppm in air
VmaxET, determined in vivo [9]: 15 ^d μmol/h/kg
apparent Michaelis constant of the ET oxidation in the liver compartment [10]: 0.0005 mmol/L
Km, determined in vivo ([12]; ref Andersen et al. (1980)): 218 ^f ppm in air
VmaxET, determined in vivo ([12]; ref Andersen et al. (1980)): 8.6 ^f μmol/h/kg
Km, determined in vivo ([12]; ref Bolt et al. (1984)): 204 ^e ppm in air
VmaxET, determined in vivo ([12]; ref Bolt et al. (1984)): 8.5 ^e μmol/h/kg
mutagenicity [14]: negative

Compound: CC1CO1 (centres unmarked) [PO, propylene oxide]
half-life of the noncatalyzed aqueous hydrolysis [15]: 88 h
hepatic microsomal elimination clearance (epoxide hydrolase (EH) [16]): 9.9 μl/min/mg protein
half-life of nonenzymatic GSH conjugation [17]: 1.7 h
hepatic microsomal elimination clearance (epoxide hydrolase (EH) [18]): 4.4 μl/min/mg protein

Compound: C=Cc1ccccc1 [Styrene, styrene]
partition ratio k3/k4 [19]: 10,000
